We go through 33 molecules from patent US20230348426A1, “OXOPYRROLIDINE FPR2 AGONISTS” (Bristol-Myers Squibb Company, priority 2020, published 2023).

As usually defined, the EC50 is the concentration giving half of the maximal effect.

The target in one test is human FPR1 (Homo sapiens (Human), UniProt P21462). As to the kind of experiment: FPR1 cyclic adenosine monophosphate (cAMP) assay. The format is cell-based. The settings on record: CHO cells overexpressing human FPR1; forskolin 10 µM; inhibition of cAMP production; read-out: hFPR1 cAMP EC50. A digest of the protocol:
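CHO cells overexpressing human FPR1 (4,000 cells/well) stimulated with 10 µM forskolin plus 200 µM IBMX in the presence of compound (0.020 nM–100 µM, 1% DMSO), 30 min at room temperature. Intracellular cAMP measured by HTRF. Inhibition of cAMP production fitted to a 4-parameter logistic equation.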
A general note: Changes in cAMP serve as a functional read-out for many G protein-coupled receptors.

In the next test the target is human FPR2 (Homo sapiens (Human), UniProt P25090). As to the kind of experiment: FPR2 cyclic adenosine monophosphate (cAMP) assay. The format is cell-based. To be noted: CHO cells overexpressing human FPR2; forskolin 5 µM; inhibition of cAMP production; read-out: hFPR2 cAMP2 EC50. A digest of the protocol: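 CHO cells overexpressing human FPR2 (2,000/well) incubated 30 min at room temperature with compound (0.020 nM–100 µM, 1% DMSO), 5 µM forskolin and 200 µM IBMX.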
Sequence of human FPR2 (P25090 whole entry): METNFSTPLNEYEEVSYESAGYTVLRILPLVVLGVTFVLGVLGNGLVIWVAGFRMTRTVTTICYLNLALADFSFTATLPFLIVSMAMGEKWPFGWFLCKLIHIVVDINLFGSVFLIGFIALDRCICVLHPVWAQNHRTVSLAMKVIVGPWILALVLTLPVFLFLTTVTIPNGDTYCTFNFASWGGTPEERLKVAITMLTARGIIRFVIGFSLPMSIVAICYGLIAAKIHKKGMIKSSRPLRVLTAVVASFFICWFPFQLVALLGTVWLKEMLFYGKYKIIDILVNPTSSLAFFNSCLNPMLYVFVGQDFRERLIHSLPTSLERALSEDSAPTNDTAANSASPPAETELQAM

Sequence of human FPR1 (P21462 whole entry): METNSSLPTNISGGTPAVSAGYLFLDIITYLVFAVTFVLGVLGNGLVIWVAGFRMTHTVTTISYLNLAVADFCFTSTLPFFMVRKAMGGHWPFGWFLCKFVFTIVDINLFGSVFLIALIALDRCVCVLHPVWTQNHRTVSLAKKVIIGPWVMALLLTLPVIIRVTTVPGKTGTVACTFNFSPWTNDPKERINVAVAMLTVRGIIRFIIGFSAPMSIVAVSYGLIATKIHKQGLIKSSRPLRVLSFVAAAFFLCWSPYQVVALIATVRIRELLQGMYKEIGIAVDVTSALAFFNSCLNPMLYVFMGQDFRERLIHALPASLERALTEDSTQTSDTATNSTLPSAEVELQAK

In the case of `COCC(CO)n1cccc(N2C[C@@H](c3ccc(OC)cc3F)[C@H](NC(=O)c3ccc(OC(F)F)cc3)C2=O)c1=O` (stereo partly drawn) [Example 438], the 50% effective concentration (EC50) is 7 nM at human FPR1 and 3.9 nM at human FPR2.

For the molecule `CC(O)Cn1cccc(N2C[C@@H](c3ccc(Cl)cc3)[C@H](NC(=O)c3ccc(OC(F)(F)F)cc3)C2=O)c1=O` (stereo partly drawn) [Example 439], the EC50 on human FPR1 is 7 nM; on human FPR2, 5.5 nM.

`COc1ccc([C@@H]2CN(c3cccn(CC(C)O)c3=O)C(=O)[C@H]2NC(=O)c2ccc(OC(F)(F)F)cc2)cc1` (stereo partly drawn) [Example 440]: the figures for the 50% effective concentration (EC50) at human FPR1 and on human FPR2 were 11 nM and 1.3 nM, respectively.

For `COCC(C(=O)N1CCOCC1)n1cccc(N2C[C@@H](c3ccc(OC)cc3)[C@H](NC(=O)c3ccc(OC(F)F)cc3)C2=O)c1=O` (stereo partly drawn) [Example 441], the EC50 came out at 3 nM at human FPR1 and 5.2 nM at human FPR2.

Turning to `Cc1ccn(CC2CC2)c(=O)c1N1C[C@@H](c2ccc(Cl)cc2)[C@H](NC(=O)c2ccc(OC(F)F)cc2)C1=O` [Example 442], the figures for the EC50 on human FPR1 and at human FPR2 were 1 nM and 9.6 nM, respectively.

Turning to `Cc1ccn(CC(F)F)c(=O)c1N1C[C@@H](c2ccc(Cl)cc2)[C@H](NC(=O)c2ccc(OC(F)(F)F)cc2)C1=O` [Example 443], the EC50 came out at 2 nM on human FPR1 and 5.1 nM on human FPR2.

Regarding `COCC(C(=O)N1CCCC1)n1cccc(N2C[C@@H](c3ccc(OC)cc3)[C@H](NC(=O)c3ccc(OC(F)F)cc3)C2=O)c1=O` (stereo partly drawn) [Example 444], the EC50 amounted to 1 nM at human FPR1 and 1.8 nM at human FPR2.

On to `COc1cc(F)c([C@H]2[C@H](NC(=O)c3ccc(OC(F)F)cc3)C(=O)N(c3cccn(CCO)c3=O)[C@H]2C)c(F)c1` [Example 445], for which the figures for the EC50 on human FPR1 and on human FPR2 were 620 nM and 4.2 nM, respectively.

In the case of `COc1cc(F)c([C@@H]2CN(c3cc4c(n(CCO)c3=O)CCCC4)C(=O)[C@H]2NC(=O)c2ccc(OC(F)F)cc2)c(F)c1` [Example 446], the EC50 at human FPR1 is 3 nM; on human FPR2, less than 5 nM.

For the molecule `COc1cc(F)c([C@@H]2CN(c3nccc(NCC4CCCO4)c3C(F)(F)F)C(=O)[C@H]2NC(=O)c2ccc(Cl)cc2)c(F)c1` (stereo partly drawn) [Example 447], the values for the EC50 at human FPR1 and on human FPR2 were 2800 nM and 4.7 nM, respectively.

Take `COCC(C(=O)N1CC[C@@H](O)C1)n1cccc(N2C[C@@H](c3c(F)cc(OC)cc3F)[C@H](NC(=O)c3ccc(OC(F)F)cc3)C2=O)c1=O` (stereo partly drawn) [Example 448]: the EC50 was determined as 9 nM at human FPR1 and 8 nM on human FPR2.

As to `COCC(CO)n1ccc(C)c(N2C[C@@H](c3ccc(OC)cc3)[C@H](NC(=O)c3ccc(OC(F)(F)F)cc3)C2=O)c1=O` (stereo partly drawn) [Example 449], the EC50 on human FPR1 was determined as 0.2 nM; on human FPR2, 3.5 nM.

For `COc1cc(F)c([C@@H]2CN(c3c(C)ccn(CC4CC4)c3=O)C(=O)[C@H]2NC(=O)c2ccc(Cl)cc2)c(F)c1` [Example 450], the EC50 on human FPR1 and at human FPR2 was 3 nM in each case.

As for `COc1cc(F)c([C@@H]2CN(c3nccc(NCCS(C)(=O)=O)c3C(F)(F)F)C(=O)[C@H]2NC(=O)c2ccc(Cl)cc2)c(F)c1` [Example 451], the 50% effective concentration (EC50) came out at 1900 nM on human FPR1 and 2 nM at human FPR2.

Regarding `COCC(CO)n1nccc(N2C[C@@H](c3c(F)cc(OC)cc3F)[C@H](NC(=O)c3ccc(OC(F)(F)F)cc3)C2=O)c1=O` (stereo partly drawn) [Example 452], the figures for the EC50 on human FPR1 and on human FPR2 were 4 nM and 9.6 nM, respectively.

`COc1cc(F)c([C@@H]2CN(c3c(C)ccn(C(F)(F)CO)c3=O)C(=O)[C@H]2NC(=O)c2ccc(OC(F)F)cc2)c(F)c1` [Example 454]: the figures for the EC50 at human FPR1 and on human FPR2 were 17 nM and 4.4 nM, respectively.

`COc1cc(F)c([C@@H]2CN(c3c(C)ccn(CC#N)c3=O)C(=O)[C@H]2NC(=O)c2ccc(OC(F)(F)F)cc2)c(F)c1` [Example 455]: the 50% effective concentration (EC50) at human FPR1 turned out to be 10 nM; on human FPR2, 2.9 nM.

For the molecule `COc1cc(F)c([C@@H]2CN(c3c(C)ccn(CC4CCOCC4)c3=O)C(=O)[C@H]2NC(=O)c2ccc(OC(F)(F)F)cc2)c(F)c1` [Example 456], the EC50 worked out at 1 nM on human FPR1 and 2.8 nM at human FPR2.

In the case of `COc1cc(F)c([C@@H]2CN(c3c(C)ccn(CC4CCOCC4)c3=O)C(=O)[C@H]2NC(=O)c2ccc(OC(F)F)cc2)c(F)c1` [Example 457], the EC50 on human FPR1 worked out at 2 nM; at human FPR2, 3.2 nM.

Take `COc1cc(F)c([C@@H]2CN(c3c(C)ccn(C4CCC4)c3=O)C(=O)[C@H]2NC(=O)c2ccc(OC(F)(F)F)cc2)c(F)c1` [Example 458]: the concentration giving a half-maximal response (EC50) on human FPR1 came out at 0.8 nM; at human FPR2, 1.2 nM.

`COc1ccc([C@@H]2CN(c3c(C)ccn(CC4CC4)c3=O)C(=O)[C@H]2NC(=O)c2ccc(OC(F)F)cc2)cc1` [Example 459]: the half-maximal effective concentration (EC50) at human FPR1 was 0.2 nM; on human FPR2, 0.9 nM.

As for `CCn1c2c(cc(N3C[C@@H](c4c(F)cc(OC)cc4F)[C@H](NC(=O)c4ccc(OC(F)F)cc4)C3=O)c1=O)CCCC2` [Example 460], the half-maximal effective concentration (EC50) on human FPR1 was found to be 1 nM; at human FPR2 it was 1.4 nM.

`COCCn1c2c(cc(N3C[C@@H](c4c(F)cc(OC)cc4F)[C@H](NC(=O)c4ccc(Cl)cc4)C3=O)c1=O)CCCC2` [Example 461]: the half-maximal effective concentration (EC50) at human FPR1 came to 3 nM; at human FPR2, 3.7 nM.

For `COc1cc(F)c([C@@H]2CN(c3c(C)ccn(C4COC4)c3=O)C(=O)[C@H]2NC(=O)c2ccc(OC(F)(F)F)cc2)c(F)c1` [Example 463], the EC50 at human FPR1 came to 6 nM; at human FPR2, 3.9 nM.

For `CCn1c2c(cc(N3C[C@@H](c4c(F)cc(OC)cc4F)[C@H](NC(=O)c4ccc(Cl)cc4)C3=O)c1=O)CCCC2` [Example 464], the figures for the EC50 on human FPR1 and at human FPR2 were 4 nM and 1.6 nM, respectively.

Take `COc1ccc([C@@H]2CN(c3cccn(CC(O)C(F)(F)F)c3=O)C(=O)[C@H]2NC(=O)c2ccc(OC(F)F)cc2)c(F)c1` (stereo partly drawn) [Example 465]: the concentration giving a half-maximal response (EC50) at human FPR1 amounted to 13 nM; at human FPR2, 2.9 nM.

In the case of `COc1cc(F)c([C@@H]2CN(c3ccnn(CC(O)C(F)(F)F)c3=O)C(=O)[C@H]2NC(=O)c2ccc(OC(F)(F)F)cc2)c(F)c1` (stereo partly drawn) [Example 466], the concentration for a half-maximal effect (EC50) was 4 nM on human FPR1 and 3 nM on human FPR2.

For `COc1cc(F)c([C@@H]2CN(c3cncn(CC(C)O)c3=O)C(=O)[C@H]2NC(=O)c2ccc(OC(F)F)cc2)c(F)c1` (stereo partly drawn) [Example 467], the results for the half-maximal effective concentration (EC50) at human FPR1 and on human FPR2 were 1500 nM and 1.8 nM, respectively.

Take `COc1cc(F)c([C@@H]2CN(c3ccnn(CCC(F)(F)F)c3=O)C(=O)[C@H]2NC(=O)c2ccc(OC(F)F)cc2)c(F)c1` [Example 468]: the concentration for a half-maximal effect (EC50) at human FPR1 came out at 18 nM; on human FPR2, 2.1 nM.

For the molecule `COc1cc(F)c([C@@H]2CN(c3c(C)ccn(CCS(C)(=O)=O)c3=O)C(=O)[C@H]2NC(=O)c2ccc(OC(F)(F)F)cc2)c(F)c1` [Example 469], the figures for the EC50 at human FPR1 and on human FPR2 were 2 nM and 1.4 nM, respectively.

For the molecule `COc1cc(F)c([C@@H]2CN(c3c(C)ccn(CCS(C)(=O)=O)c3=O)C(=O)[C@H]2NC(=O)c2ccc(OC(F)F)cc2)c(F)c1` [Example 470], the EC50 came out at 8 nM on human FPR1 and 1.9 nM on human FPR2.

As to `COCCn1ncc(C)c(N2C[C@@H](c3c(F)cc(OC)cc3F)[C@H](NC(=O)c3ccc(OC(F)(F)F)cc3)C2=O)c1=O` [Example 471], the values for the concentration giving a half-maximal response (EC50) at human FPR1 and at human FPR2 were 2 nM and 1.1 nM, respectively.

As for `COCCn1ncc(C)c(N2C[C@@H](c3c(F)cc(OC)cc3F)[C@H](NC(=O)c3ccc(OC(F)F)cc3)C2=O)c1=O` [Example 472], the figures for the EC50 at human FPR1 and on human FPR2 were 1.7 nM and 1.2 nM, respectively.
